# Patent publication US20100029654A1, “CARDIOVASCULAR COMPOSITIONS AND USE OF THE SAME FOR THE TREATMENT OF ALZHEIMER'S DISEASE” (MOUNT SINAI SCHOOL OF MEDICINE, priority 2006, published 2010)
# Structures can show the parent of a compound that is named as a salt. Where two headings read alike, the source gives them in different places.
# Columns and labels:
# Aβ1-42 [1] = assay: Aβ1-42 content in conditioned medium of primary cortico-hippocampal neuron cultures from Tg2576 mice (ELISA; primary and secondary dose-response screening); assay type: cell-based, mouse; conditions: for Ab1-42 (% of ctl) / activity at 100 µM: drug 100 μM; for activity at 100 µM: Mus musculus, Neuron, 24 h, read-out: Ab1-42 (% of ctl); for reducing Aβ1-42: <85% of ctl
# Method in brief: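 Primary cortico-hippocampal neurons from embryonic Tg2576 mouse brain were seeded on poly-D-lysine-coated 96-well plates at 1.0×10^5 cells per well in serum-free Neurobasal medium with 2% B27, 0.5 mM L-glutamine and 1% penicillin-streptomycin. For primary screening, duplicate wells received 100 μM drug (1% DMSO final). Vehicle-treated cultures served as controls, and Aβ1-42 in conditioned medium was measured by commercial ELISA.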
# Aβ1-40 = Aβ1-40 content in conditioned medium of primary cortico-hippocampal neuron cultures from Tg2576 mice (ELISA; primary and secondary dose-response screening); assay type: cell-based, mouse; conditions: for activity at 100 µM / EC50: Mus musculus; for activity at 100 µM: 24 h, read-out: Ab1-40 (% of ctl); for activity at 100 µM / Ab1-40 (% of ctl): drug 100 μM; for reduced Aβ1-40: <85% of ctl; for EC50: read-out: EC50 (molar) Aβ1-40
# Method in brief: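 Primary cortico-hippocampal neurons from embryonic Tg2576 mice were plated at 1.0×10^5 cells per well on poly-D-lysine-coated 96-well plates in Neurobasal with 2% B27, 0.5 mM L-glutamine and 1% penicillin-streptomycin. Cultures received drug in 1% DMSO, and Aβ1-40 in the conditioned medium was measured by BioSource ELISA 24 hours after treatment, relative to vehicle controls.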
# [2] = test system: primary cortico-hippocampal neuron cultures
# Protocol: (§1) For in vitro treatments drugs available from “The Spectrum Collection” in stocks of 10 mM in DMSO were applied directly to cultures to the desired concentrations (final 1% DMSO); control primary neuron cultures from Tg2576 embryos were treated with vehicle resulting in a final 1% DMSO.
# (§2) Cell viability was assessed using a commercial available LDH assay kit according to the manufacture's instruction (Promega).
# [3] = test system: primary cortico-hippocampal neuron cultures; assay: MTT in primary screening
# Aβ1-42 [4] = assay: Aβ1-42 content in conditioned medium of primary cortico-hippocampal neuron cultures from Tg2576 mice (ELISA; primary and secondary dose-response screening); assay type: cell-based, mouse; conditions: Mus musculus, 24 h; for activity at 100 µM: primary screening, drug 100 μM, Tg2576 neuron cultures, table sorted by Aβ1-42, read-out: Ab1-42 (% of ctl); for EC50: Neuron, read-out: EC50 (molar) Aβ1-42
# [5] = test system: primary cortico-hippocampal neuron cultures; assay: lactate dehydrogenase (LDH) activity assay in parallel neuron cultures; conditions: for LDH at E-5M % of change: drug at E-5M
# Protocol: as §1, §2
# [6] = Primary Screening, table sorted by Aβ1-40
# [7] = primary screening, Tg2576 neuron cultures, table sorted by Aβ1-42
# [8] = primary screening, table sorted by Aβ1-42
# [9] = Neuron, Primary Screening, table sorted by Aβ1-40
# [10] = Neuron, primary screening, Tg2576 neuron cultures, table sorted by Aβ1-42
# [11] = conditioned medium of primary cortico-hippocampal neuron cultures from Tg2576 embryos, 24 hours after treatment, relative to vehicle (1% DMSO) control
# [12] = secondary dose-response screening 0.01-100 μM, 24 hours
# [13] = Neuron, secondary dose-response screening 0.01-100 μM, 24 hours
"MTT (% of ctl) [3, 6]","MTT (% of ctl) [3, 8]","LDH (% of ctl) [5, 6]",LDH at E-5M % of change [5] [%],"LDH (% of ctl) [5, 8]",EC50 (Aβ1-42 [4]; [12]) [µM],EC50 (Aβ1-40; [13]) [µM],SMILES,Ab1-42 (% of ctl) (Aβ1-42 [1]; [6]),activity at 100 µM (Aβ1-40; [7]) [%],Ab1-40 (% of ctl) (Aβ1-40; [6]),activity at 100 µM (Aβ1-42 [4]) [%],activity at 100 µM (Aβ1-42 [1]; [6]) [%],activity at 100 µM (Aβ1-42 [1]; [7]) [%],activity at 100 µM (Aβ1-40; [9]) [%],activity at 100 µM (Aβ1-40; [10]) [%],reduced Aβ1-40 (Aβ1-40; primary screening),reducing Aβ1-42 (Aβ1-42 [1]; primary screening),also measured
,,,,,,,N=C(N)NCCN1CCCCCCC1 [Guanethidine Sulfate],,,,,,,,,,,"LDH (% of ctl) ([2]; Tg2576, mouse): 1057.3 % of ctl"
95.3 % of ctl,95.3 % of ctl,72.5 % of ctl,−5.6,72.5 % of ctl,0.00405,,CCC[C@H](N[C@@H](C)C(=O)N1[C@H](C(=O)O)C[C@@H]2CCCC[C@@H]21)C(=O)OCC [Perindopril Erbumine],,,,,88.8,88.8,83.8,83.8,reduced Aβ1-40,,EC50 (molar) Aβ1-40 (Aβ1-40; [11]): no fit; EC50 (molar) Aβ1-40 (Aβ1-40; [12]): no fit; EC50 (Aβ1-42 [4]; [11]): 0.0045 µM
110.3 % of ctl,110.3 % of ctl,90.7 % of ctl,−3.4,90.7 % of ctl,0.0865,12.1,Cc1ccc(N(CC2=NCCN2)c2cccc(O)c2)cc1 [Phentolamine Hydrochloride],,,,,72.9,72.9,83.4,83.4,reduced Aβ1-40,useful in reducing Aβ1-42,
99.9 % of ctl,99.9 % of ctl,260.2 % of ctl,5.0,260.2 % of ctl,67.6,571,COc1cc2nc(N3CCN(C(=O)c4ccco4)CC3)nc(N)c2cc1OC [Prazosin Hydrochloride],,,,,23.2,23.2,7.6,7.6,reduced Aβ1-40,useful in reducing Aβ1-42,EC50 (Aβ1-42 [4]; [11]): 67.6 µM
,,,,,,,CC(C)NCC(O)COc1cccc2ccccc12.Cl (stereo not drawn) [Propranolol Hydrochloride (−)],32.8 % of ctl,,55.0 % of ctl,,,,,,reduced Aβ1-40,useful in reducing Aβ1-42,Ab1-42 (% of ctl) (Aβ1-42 [1]; [7]): 32.8 % of ctl; Ab1-40 (% of ctl) (Aβ1-40; [7]): 55.0 % of ctl; LDH (% of ctl) [2]: 166.6 % of ctl
87.2 % of ctl,87.2 % of ctl,157.8 % of ctl,−3.4,157.8 % of ctl,902,56.6,COC(=O)[C@H]1[C@H]2C[C@@H]3c4[nH]c5cc(OC)ccc5c4CCN3C[C@H]2C[C@@H](OC(=O)c2cc(OC)c(OC)c(OC)c2)[C@@H]1OC [Reserpine],,,,,38.7,38.7,24.7,24.7,reduced Aβ1-40,useful in reducing Aβ1-42,
77.7 % of ctl,77.7 % of ctl,396.1 % of ctl,−3.4,396.1 % of ctl,21.3,14.5,CCCCCCCCNC(C)C(O)c1ccc(SC(C)C)cc1 (stereo not drawn) [Suloctidil],,,,,4.6,4.6,1.8,1.8,reduced Aβ1-40,useful in reducing Aβ1-42,
82.7 % of ctl,82.7 % of ctl,107.8 % of ctl,6.0,107.8 % of ctl,7.08e-06,,COC(=O)[C@@H]1[C@H]2C[C@H]3c4[nH]c5ccccc5c4CCN3C[C@@H]2CC[C@@H]1O [Yohimbine Hydrochloride],,,,,68.9,68.9,66.2,66.2,reduced Aβ1-40,useful in reducing Aβ1-42,EC50 (molar) Aβ1-40 (Aβ1-40; [12]): no fit

SMILES,"MTT (% of ctl) [3, 6]","MTT (% of ctl) [3, 8]","LDH (% of ctl) [5, 6]",LDH at E-5M % of change [5] [%],"LDH (% of ctl) [5, 8]",EC50 (Aβ1-42 [4]; [12]) [µM],EC50 (Aβ1-40; [13]) [µM],Ab1-42 (% of ctl) (Aβ1-42 [1]; [6]),activity at 100 µM (Aβ1-40; [7]) [%],Ab1-40 (% of ctl) (Aβ1-40; [6]),activity at 100 µM (Aβ1-42 [4]) [%],activity at 100 µM (Aβ1-42 [1]; [6]) [%],activity at 100 µM (Aβ1-42 [1]; [7]) [%],activity at 100 µM (Aβ1-40; [9]) [%],activity at 100 µM (Aβ1-40; [10]) [%],reduced Aβ1-40 (Aβ1-40; primary screening),reducing Aβ1-42 (Aβ1-42 [1]; primary screening),also measured
CC[C@H]1[C@@H]2C[C@H]3[C@@H]4N(C)c5ccccc5[C@]45C[C@@H]([C@H]2[C@H]5O)N3[C@@H]1O [Ajmaline],90.3 % of ctl,90.3 % of ctl,,,,,,103.3 % of ctl,114,114.0 % of ctl,103,,,,,,,"LDH (% of ctl) ([2]; Tg2576, mouse): 97.6 % of ctl"
CO[C@H]1[C@H](O)[C@H](O[C@H]2CC[C@@]3(C=O)[C@H](CC[C@@H]4[C@@H]3CC[C@]3(C)[C@@H](C5=CC(=O)OC5)CC[C@]43O)C2)O[C@@H](C)[C@@H]1O [Peruvoside],98.8 % of ctl,98.8 % of ctl,105.5 % of ctl,,105.5 % of ctl,,,90.9 % of ctl,115,115.3 % of ctl,90.9,,,,,,,
CC(COc1ccccc1)N(CCCl)Cc1ccccc1 (stereo not drawn) [Phenoxybenzamine Hydrochloride],72.8 % of ctl,72.8 % of ctl,81.3 % of ctl,,81.3 % of ctl,,,90.7 % of ctl,87.5,87.5 % of ctl,90.7,,,,,,,
C[C@]12CC[C@H]3[C@@H](CC[C@]4(O)C[C@@H](O)CC[C@]34C=O)[C@@]1(O)CC[C@@H]2C1=CC(=O)OC1 [Strophanthidin],99.2 % of ctl,99.2 % of ctl,119.4 % of ctl,,119.4 % of ctl,,,88.6 % of ctl,108,107.5 % of ctl,88.6,,,,,,,
Cc1cc(C(C)(C)C)cc(C)c1CC1=NCCN1 [Xylometazoline Hydrochloride],88.2 % of ctl,88.2 % of ctl,110.8 % of ctl,,110.8 % of ctl,,,71.8 % of ctl,66.6,66.6 % of ctl,71.8,,,,,reduced Aβ1-40,useful in reducing Aβ1-42,
